Where two headings read alike, the source gives them in different places.
Tests used:
[1] = target: T1, hERG (Homo sapiens, UniProt Q12809); experiment: Cardiac potassium channel hERG assay, whole-cell patch clamp in HEK-293 cells; type: cell-based; settings: HEK-293 cells stably transfected with hERG; read-out: hERG inhibition (IC50)
T1 construct: host or cells: HEK-293
Procedure: Compounds were tested in a cardiac potassium channel hERG assay. hERG is responsible for a rapid delayed rectifier current (IKr) in human ventricles. Inhibition of IKr is the most common cause of cardiac action potential prolongation by non-cardiac drugs. See e.g., Brown, A. M. and Rampe, D. (2000). Drug-induced long QT syndrome: is HERG the root of all evil? Pharmaceutical News 7, 15-20.
HEK-293 cells were stably transfected with hERG cDNA. Stable transfectants were selected by coexpression with the G418-resistance gene incorporated into the expression plasmid. Selection pressure was maintained by including G418 in the culture medium. Cells were cultured in Dulbecco's Modified Eagle Medium/Nutrient Mixture F-12 (D-MEM/F-12) supplemented with 10% fetal bovine serum, 100 U/mL penicillin G sodium, 100 μg/mL streptomycin sulfate and 500 μg/mL G418. Cell culture records are kept on file at Charles River Laboratories. […]
Onset and steady state inhibition of hERG current was measured using a pulse pattern with fixed amplitudes (conditioning prepulse: +20 mV for 2 s; test pulse: −50 mV for 2 s) repeated at 10 s intervals, from a holding potential of −80 mV. Peak tail current was measured during the 2 s step to −50 mV.
One test article concentration was applied to each cell (n=3). Peak current was measured during the test ramp. […] Peak current was measured until a new steady state was achieved.

[2] = Oral bioavailability in rat; type: in vivo; settings: male, Sprague Dawley, plasma; 10 mg/kg PO, 0.5 mg/kg IV in rat
Source text: Oral bioavailability data was collected in rat as follows.

[3] = Metabolic stability in liver microsomes, mouse; type: in vitro ADME; settings: % remaining at 1 hour; 1 μM
Procedure: (§1) Metabolic stability profiling of the compounds was performed in liver microsomes. In this assay, test compound is incubated with liver microsomes in the presence of NADPH for 2 time points at 37° C. At the end of incubation, reaction is quenched with acetonitrile containing internal standard and the parent compound remaining is determined by LC-MS/MS. Conditions used in the assay are summarized below. […], 37° C. • Test concentration: 1 μM in 0.02% DMSO at pH 7.4 (n=2) • NADPH concentration in assay: 1 mM • Liver microsome protein concentration in assay: 0.5 mg/ml • Analysis: LC-MS/MS • Data reported: % Parent Compound Remaining (% PCR) • Reference compounds for high and low clearance are included • Species tested: mouse, rat, dog, monkey, and human

[4] = Metabolic stability in liver microsomes, human; type: in vitro ADME; settings: % remaining at 1 hour; 1 μM
Procedure: as §1

[5] = tested on: harmaline induced tremor; experiment: Harmaline induced tremor, tremor events by forepaw transmitter band; type: in vivo, rat
Procedure: Immediately following harmaline injection, animals were placed in the tremor quantification apparatus and tremor events were quantified for 60 minutes. A tremor event signal was generated when a small metal transmitter band fitted to the right forepaw of the animal moved within the electromagnetic field generated by a loop antenna within the testing apparatus. Outputs from the amplifier were digitized at a sampling rate of 1,000 Hz and the signal was processed and analyzed using LabView software (National Instruments). To minimize signal from ambulatory and grooming behavior, the signal was filtered with a 128-ms unweighted moving average filter, and events with amplitudes>0.5 V and lasting>300 ms in duration were counted as a tremor event. Data were analyzed in one-minute bins over the course of the test and presented as the sum of tremor events over the entire 60 minute test.

[6] = tested on: Purkinje neurons; experiment: Purkinje cell firing irregularity in ex vivo cerebellar slices from SCA2 58Q transgenic mice; type: cell-based, mouse; settings: bath application of 1 or 3 μM; slices from eleven-month old SCA2 58Q mice; P<0.05; FIG. 3
Source text: The difference in ISI CV between wild-type (N=8) and SCA2 58Q (N=11) mice is illustrated in FIG. 3 (P<0.005).

[7] = Brain concentration by LC-MS from brains harvested after tremor recording; type: in vivo; settings: Sprague Dawley, rat, oral, 30 mg/Kg
Procedure: The extent to which compounds modulate SK2 channels in vivo is expressed as % SK2 SC100, which is the ratio of the concentration of the drug free in the brain to the measured potency of the compound on the SK2 channel. It is calculated as follows: CFB=CMB×BFF, where CMB is the concentration of compound measured by liquid chromatography mass spectrometry from brains harvested immediately following tremor recording (Table 1, “Measured Brain Concentration”). CFB is the amount of free compound not complexed with protein and therefore free to interact with the SK2 channel (Table 1, “Calculated Free Brain Concentration”). BFF is average free fraction of compound as measured by equilibrium dialysis in separate experiments (1 uM test concentration incubated in 10% rat brain tissue homogenate for 5 hours at 37° C.) (Table 1, “Brain Free Fraction”). Free drug in brain available to interact with SK2 channels (CFB) is arrived at by multiplying the measured total brain level (CMB) by the average free fraction (BFF).
The amount of free compound is then expressed in terms of its potency against the SK2 channel as follows: % SK2 SC100=CFB/SK2 SC100×100, where SK2 SC100 (Table 1, “SK2 SC100”) is the measured value of potency of the compound on SK2 channels and % SK2 SC100 (Table 1, “% SK2 SC100”) is the free brain concentration (CFB) normalized to SK2 SC100.

[8] = tested on: harmaline-induced tremor; experiment: Harmaline-induced whole body tremor, force-plate accelerometer (Tremor Monitor); type: in vivo
Procedure: Whole body tremor was measured by a San Diego Instruments Tremor Monitor (San Diego, Calif., USA). […] Tremor was measured for 30 minutes following harmaline administration, and data were analyzed by fast Fourier transform and reported as a frequency power spectrum. Harmaline induced a significant increase in the power spectrum in a band of frequencies between 10 and 14 Hz. […] Data were further analyzed by calculating the percent Motion Power (% MP), defined as the power in the 9-13 Hz band divided by the total power across the spectrum (0-30 Hz) multiplied by 100.

T1 sequence (Q12809 whole entry): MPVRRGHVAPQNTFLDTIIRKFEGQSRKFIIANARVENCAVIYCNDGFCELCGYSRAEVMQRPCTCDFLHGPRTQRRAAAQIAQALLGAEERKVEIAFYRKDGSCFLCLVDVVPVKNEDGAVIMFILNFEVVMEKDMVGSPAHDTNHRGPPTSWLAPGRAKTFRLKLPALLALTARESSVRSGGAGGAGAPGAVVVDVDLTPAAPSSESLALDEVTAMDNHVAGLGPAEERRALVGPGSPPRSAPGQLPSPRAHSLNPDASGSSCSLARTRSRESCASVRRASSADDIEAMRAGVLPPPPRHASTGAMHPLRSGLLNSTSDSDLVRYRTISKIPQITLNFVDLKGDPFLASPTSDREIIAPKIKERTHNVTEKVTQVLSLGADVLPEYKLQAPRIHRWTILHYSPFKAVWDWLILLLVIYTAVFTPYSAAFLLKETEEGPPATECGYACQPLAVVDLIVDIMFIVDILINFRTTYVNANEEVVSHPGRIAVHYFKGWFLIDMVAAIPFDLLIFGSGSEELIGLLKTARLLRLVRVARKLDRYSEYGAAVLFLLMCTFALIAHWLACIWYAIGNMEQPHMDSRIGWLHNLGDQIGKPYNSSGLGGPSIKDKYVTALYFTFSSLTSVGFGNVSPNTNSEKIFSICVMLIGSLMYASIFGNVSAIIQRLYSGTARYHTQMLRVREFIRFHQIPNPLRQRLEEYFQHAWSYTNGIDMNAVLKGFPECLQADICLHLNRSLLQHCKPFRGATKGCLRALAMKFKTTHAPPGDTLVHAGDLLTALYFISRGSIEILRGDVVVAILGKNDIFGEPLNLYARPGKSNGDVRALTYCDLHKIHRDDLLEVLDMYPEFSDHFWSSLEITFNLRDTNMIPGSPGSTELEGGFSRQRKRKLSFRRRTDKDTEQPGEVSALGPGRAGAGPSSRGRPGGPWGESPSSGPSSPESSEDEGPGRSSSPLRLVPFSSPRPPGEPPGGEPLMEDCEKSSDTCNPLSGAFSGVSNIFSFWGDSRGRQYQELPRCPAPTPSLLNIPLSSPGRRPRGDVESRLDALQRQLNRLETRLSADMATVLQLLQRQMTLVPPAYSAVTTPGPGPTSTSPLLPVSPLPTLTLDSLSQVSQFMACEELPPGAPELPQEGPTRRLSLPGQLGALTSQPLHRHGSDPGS

| Compound | IC50 [1] [µM] | bioavailability [2] [%] | Liver microsome stability, Mouse [3] [%] | Liver microsome stability, Human [4] [%] | Effect on harmaline induced tremor (sum of tremor events over 60 minutes) ([5]; 30 mg/Kg oral, 30 minutes prior to harmaline, male Sprague Dawley rats, FIG. 1) | Minimally Efficacious Dose ([5]; harmaline induced tremor, oral administration) [mg/kg] | Effect on coefficient of variation of the interspike interval (ISI CV) [6] | concentration at 90 min ([7]; CFB=CMB×BFF, read-out: Calculated Free Brain Concentration) [nM] | concentration at 90 min ([7]; brains harvested immediately following tremor recording, minimally efficacious dose, read-out: Measured Brain Concentration) [nM] | Effect on percent Motion Power (% MP) ([8]; 3 mg/kg P<0.01, 10 and 30 mg/kg P<0.05, orally, FIG. 2) | Effect on harmaline-induced power spectrum, 10 to 14 Hz band ([8]; 3, 10, and 30 mg/kg orally 30 minutes prior to 5 mg/kg harmaline i.p.) |
| --- | --- | --- | --- | --- | --- | --- | --- | --- | --- | --- | --- |
| Cc1cc(NC2CCCCC2)nc(-n2nc(C)cc2C)n1 [Comparator A, reference compound] | > 10 | 5 | 1 | 50 | – | – | – | – | – | – | – |
| Cc1ccn(-c2nc(NC3CCC(F)(F)CC3)cc(N3CCOCC3)n2)n1 [Compound 1, N-(4,4-difluorocyclohexyl)-2-(3-methyl-1H-pyrazol-1-yl)-6-morpholinopyrimidin-4-amine] | > 10 | 81 | 47 | 84 | significant inhibition of tremors | 30 | partially reversed the increase in ISI CV | 80 | 1300 | significantly reduced harmaline-induced tremor | significantly reduced tremor |

From patent US10351553B2, “Potassium channel modulators” (Cadent Therapeutics, Inc., priority 2017, dated 2019)
